According to patent US20090036516A1, “COMPOUNDS FOR TREATING METABOLIC SYNDROME” (CTG PHARMA S.R.L., priority 2003, published 2009):

Assays:
[1] = system: high-fat diet fed insulin resistant mice; assay: hyperinsulinemic euglycemic clamp in high-fat diet fed insulin resistant mice; format: in vivo; details: 50 mg/kg/day by gavage for 7 days; steady state phase of hyperinsulinemic euglycemic clamp; n = 8
Method: The effects of administration of 50 mg/kg/day of the compound of Example 2, by gavages to high-fat diet fed insulin resistant mice [Cook et al. Diabetes, 53:2067-72, 2004] for 7 days, in terms of glucose infusion rate (mg/kg per min, during the steady state phase of hyperinsulinemic euglycemic clamp studies) were reported in the following table 1: […]

male Wistar rats = assay: oxidative stress-induced (BSO) hypertension in rats; format: in vivo; details: BSO 30 mmol/L/day in drinking water for seven days; compound 50 mg/kg/day for seven days
From the text: It is widely known that metabolic syndrome is generally accompanied by oxidative stress. Also in the paper of Ogihara (Ogihara T. et al. “Oxidative stress induces insulin resistance by activating the nuclear factor-kB pathway and disrupting normal subcellular distribution of phosphatidylinositol 3-kinase” in Diabetologia 47, 794-805 (2004) such relationship was found. The effect of oxidative stress-induced hypertension in rats has been evaluated in male Wistar rats (10 animals/group). Hypertension was induced by oral administration of buthionine sulphoximine (BSO) (30 mmol/L/day) to the drinking water for seven days.
Compounds of examples 2, 3 and 5 suspended in the vehicle at the dose of 50 mg/kg/day were administered for seven days and some parameters measured in the experiments are reported in table 2.

[2] = system: patients with type II diabetes; details: single parenteral dose of 1,000 mg; cited from earlier work
[3] = system: patients with type II diabetes; details: oral 600 mg once to 3 times a day; cited from earlier work
diabetic neuropathy = details: intravenous 600 mg a day for 3 weeks; cited from earlier work

SMILES | glucose infusion rate [1] [mg/kg per min] | % Increase systolic blood pressure (male Wistar rats) [%] | % Plasma glutathione decrease (male Wistar rats) [%] | Endothelium function (% contraction induced by acetylcholine) (male Wistar rats) [%] | glucose utilization [2] | insulin sensitivity [3] | symptomatic complaints (diabetic neuropathy)
CC(=O)Oc1ccccc1C(=O)Oc1ccc(-c2cc(=S)ss2)cc1 [Cpd Ex 5, 2-acetoxy-benzoic acid 4-(thioxo-5H-[1,2]dithiol-3-yl)-phenyl ester] | 86.4 | 10 | 5 | 88 |  |  | 
CCOC(=O)c1ccccc1OC(=O)CCCCC1CCSS1 (stereo not shown) [Cpd Ex 6, 2-(5-[1,2]Dithiolan-3-yl-pentanoyloxy)-benzoic acid ethyl ester] |  | 50 | 20 | 60 |  |  | 
O=C(O)CCCC[C@@H]1CCSS1 (racemic) [lipoic acid] |  |  |  |  | distinct improvement | able to influence the insulin sensitivity | decreased
O=C(Oc1ccc(-c2cc(=S)ss2)cc1)c1ccccc1O [Cpd Ex 8, 2-hydroxybenzoic acid 4-(thioxo-5H-[1,2]dithiol-3-yl)-phenyl ester] |  | 15 | 7 | 80 |  |  | 
